Experimental findings from patent publication US20210386829A1, “COMPOSITIONS AND METHODS FOR MODULATING CGRP SIGNALING TO REGULATE INNATE LYMPHOID CELL INFLAMMATORY RESPONSES” (The Broad Institute, Inc., priority 2018, published 2021) are described below.

This assay deals with IL-33-induced airway inflammation. The assay can be described thus: IL-33-induced airway inflammation, intranasal co-administration of CGRP. The format is in vivo, mouse. From the text:
Mice and in vivo ILC activation. C57B1/6J mice were purchased from the Jackson Laboratory. Nmur1-LacZ reporter mice with a LacZ cassette knocked into the Nmur1 locus were rederived from Nmur1^tm1.1(KOMP)Vlcg sperm obtained from the trans-NIH Knock-Out Mouse Project (KOMP) Repository. NMU-deficient mice (NMU-KO) were rederived from B6.129S2-Nmu<tm1Mko> embryos from the RIKEN BioResource Center. For experiments with Nmur1-LacZ (Nmur1-KO) and NMU-KO mice, littermates that were either homozygous or heterozygous for the wild type allele were used as controls. Mice were housed under specific-pathogen-free conditions. For experiments, mice were matched for sex and age, and most mice were 6-10 weeks old. Where indicated, mice were anesthetized with Isoflurane and treated intranasally with the indicated stimuli (500 ng IL-25, 500 ng IL-33, or 20 μg Neuromedin U) daily for three consecutive days. The total administered volume was 20 μl for all conditions. Mice were randomly assigned to treatment groups after matching for sex and age. […] Mice were treated intranasally with 10 μg HDM on day 0, 7, 8, and 9, prior to sacrifice on day 10. All experiments were conducted in accordance with animal protocols approved by the Harvard Medical Area Standing Committee on Animals or BWH IACUC.
Lung analysis. Mice were sacrificed and perfused with cold PBS. Where indicated, after perfusion, broncho-alveolar lavage (BAL) was obtained by injecting 1.5 ml cold PBS into the lungs via a secured tracheal cannula. BALF was centrifuged, and the supernatant was used for analyzing cytokine levels and the cell pellet was resuspended, counted, and used for flow cytometry. Following BAL, lung lobes were dissected. The post-caval lobe was fixed in buffered formalin for histological analysis. Single cell suspensions of the remaining lung parenchymal tissue were prepared with the GentleMACS lung dissociation kit (Miltenyi Biotec) according to the manufacturer's instructions. Where indicated, cells were diluted in 10% Trypan Blue and viable cells counted using a hemocytometer.
Histology. Following paraffin embedding, sections of the formalin-fixed lung lobe were stained by H&E staining. Tissue sections were scored by a histopathologist in a blinded manner for severity of lung inflammation according to the following scoring system: 0=normal, 1=very mild, 2=mild, 3=moderate or 4=severe.
Methacholine challenge. Airway hyperresponsiveness was determined as previously described (Talbot, S. et al. Silencing Nociceptor Neurons Reduces Allergic Airway Inflammation. Neuron 87, 341-354, doi:10.1016/j.neuron.2015.06.007 (2015)) using a flexiVent rodent ventilator (SciReq).
Cytokine-induced airway inflammation. Mice received nasally 500 ng IL-25, 500 ng IL-33, 20 ug NMU or 6.65 ug CGRP diluted in DPBS for three consecutive days. For nasal administration, mice were lightly anesthetized with Isoflurane (Cat #07-893-1389; Patterson Veterinary). For induction of inflammatory ILC2s, mice received intraperitoneally 500 ng IL-25 for three consecutive days. One day after the last treatment, mice were euthanized and perfused with 8 ml cold PBS via the right heart ventricle. After exposure of the trachea, a small incision was made at the top of the trachea and a curved gavage needle was inserted. Lungs were washed with 1.5 ml cold PBS via the needle and the retrieved bronchoalveolar lavage fluid was centrifuged at 1300 rpm for 5 min at 4 C. After centrifugation, the supernatant was frozen at −20° C. and the cell pellet was resuspended in 250 ul complete medium and stored on ice until flow cytometric analysis. The post-caval lung lobe was transferred into 10% buffered formalin and stored at room temperature until paraffin embedding for histological analysis. […]

The mark [1] stands for this setting: IL-33+CGRP vs IL-33 alone, intranasal, three consecutive days.

Entries after “also recorded” stand apart in the source; their conditions may differ.

On to “CGRP: neuropeptide calcitonin gene-related peptide (encoded by Calca), ligand of the Ramp1/Calcrl receptor; given at 100 nM in vitro, 6.65 ug nasally”, for which, under “CGRP alone vs PBS-treated control mice”, the “lung histology (H&E)” value is “histologically identical”. The “frequency or total number of lung-resident ILCs” value (CGRP alone vs PBS-treated mice) is on record as “did not alter”. Also, where the note is “IL-33+CGRP vs IL-33 alone”, the “IL-33-induced perivascular and peribronchial lymphocytic infiltrates in lung sections (H&E, blinded score)” value is on record as “markedly inhibited”; the “airway hyperreactivity (airway resistance, methacholine challenge)” value was “less airway hyperreactivity”; the “frequency of IL-5- and IL-13-positive ILCs” value is “significantly reduced”; the “frequency of Ki67+ lung ILCs” value is recorded as “decreased frequencies”. For the same substance, the “lung ILC frequencies and numbers” value (IL-33+CGRP vs IL-33 alone) is reported as “significantly reduced”. For the same substance, under setting [1], the “IL-5 and IL-13 protein in BALF (lung homogenates and BALF)” value is on record as “lower; also recorded: reduced; also recorded: greatly diminished”; the “eosinophil frequency in lungs and BALF” value was “significantly reduced; also recorded: significantly decreased”; the “eosinophil numbers in lung (lung and BALF)” value is on record as “significantly reduced; also recorded: significantly decreased”. In addition, for the setting “IL-33+CGRP vs IL-33 alone, intranasal, three consecutive days, analysed one day later”, the “Il5 and Il13 RNA expression in lung tissue (qPCR)” value was “significantly reduced”.
